Assay results published in US20240239759A1, “ISOXAZOLINE COMPOSITIONS AND THEIR USE AS ANTIPARASITICS” (Intervet Inc., priority 2007, published 2024).

Test system: brown dog ticks (R. sanguineus)
Assay: Further efficacy study against brown dog ticks on beagles (Example 6)
Assay type: in vivo, Rhipicephalus sanguineus
Method: Beagles were randomly assigned to 5 treatment groups of 4 animals each, and one untreated control group of 3 animals.
The dogs were infested with approximately 80 fleas (C. felis) and 60 ticks (R. sanguineus) on Days −2, 7, 14, 21, 28, 35, 42, and 49. Fleas and ticks were counted on Day 2 (approximately 48 h after treatment), as well as Days 9, 16, 23, 30, 37, 44, and 51 (approximately 48 hr after each post-treatment re-infestation) to evaluate the insecticidal and acaricidal activity in the treated groups. In Group B, an additional flea and tick infestation was conducted on Day 56, with a respective flea and tick count on Day 58. In addition to the flea and tick counts, blood samples were collected before the treatments, as well as approximately 2 hr, 4 hr, 8 hr, 24 hr, and 72 hr after the treatment on Day Zero, and then once on each of Days 7, 14, 21, 28, 35, 42, 49, and 56. The concentration of Compound 11-1 in blood plasma was analyzed by HPLC/MS/MS. The LOQ of this method was 5 ng/ml.

Cc1cc(C2=NOC(c3cc(Cl)cc(Cl)c3)(C(F)(F)F)C2)ccc1C(=O)NCC(=O)NCC(F)(F)F (racemic) [Compound 11-1, 4-[5-(3,5-dichlorophenyl)-5-trifluoromethyl-4,5-dihydroisoxazol-3-yl]-2-methyl-N-[(2,2,2-trifluoro-ethylcarbamoyl)-methyl]-benzamide]
Efficacy against brown dog ticks (Group A: 1 mg/kg oral tablet, Day 2): 99.4 | Efficacy against brown dog ticks (Group A: 1 mg/kg oral tablet, Day 9): 99.3 | Efficacy against brown dog ticks (Group A: 1 mg/kg oral tablet, Day 16): 98.3 | Efficacy against brown dog ticks (Group A: 1 mg/kg oral tablet, Day 23): 98.2 | Efficacy against brown dog ticks (Group A: 1 mg/kg oral tablet, Day 30): 98.9 | Efficacy against brown dog ticks (Group A: 1 mg/kg oral tablet, Day 37): 94.6 | Efficacy against brown dog ticks (Group A: 1 mg/kg oral tablet, Day 44): 82.0 | Efficacy against brown dog ticks (Group A: 1 mg/kg oral tablet, Day 51): 82.0 | Efficacy against brown dog ticks (Group B: 1 mg/kg subcutaneous injectable solution, Day 2): 100 | Efficacy against brown dog ticks (Group B: 1 mg/kg subcutaneous injectable solution, Day 9): 99.3 | Efficacy against brown dog ticks (Group B: 1 mg/kg subcutaneous injectable solution, Day 16): 100 | Efficacy against brown dog ticks (Group B: 1 mg/kg subcutaneous injectable solution, Day 23): 98.8 | Efficacy against brown dog ticks (Group B: 1 mg/kg subcutaneous injectable solution, Day 30): 99.5 | Efficacy against brown dog ticks (Group B: 1 mg/kg subcutaneous injectable solution, Day 37): 98.8 | Efficacy against brown dog ticks (Group B: 1 mg/kg subcutaneous injectable solution, Day 44): 95.1 | Efficacy against brown dog ticks (Group B: 1 mg/kg subcutaneous injectable solution, Day 51): 88.8 | Efficacy against brown dog ticks (Group B: 1 mg/kg subcutaneous injectable solution, Day 58): 74.0 | Efficacy against brown dog ticks (Group C: 1 mg/kg topical spot-on with absorption enhancer, Day 2): 81.9 | Efficacy against brown dog ticks (Group C: 1 mg/kg topical spot-on with absorption enhancer, Day 9): 98.7 | Efficacy against brown dog ticks (Group C: 1 mg/kg topical spot-on with absorption enhancer, Day 16): 94.8 | Efficacy against brown dog ticks (Group C: 1 mg/kg topical spot-on with absorption enhancer, Day 23): 98.2 | Efficacy against brown dog ticks (Group C: 1 mg/kg topical spot-on with absorption enhancer, Day 30): 96.2 | Efficacy against brown dog ticks (Group C: 1 mg/kg topical spot-on with absorption enhancer, Day 37): 87.0 | Efficacy against brown dog ticks (Group C: 1 mg/kg topical spot-on with absorption enhancer, Day 44): 76.5 | Efficacy against brown dog ticks (Group C: 1 mg/kg topical spot-on with absorption enhancer, Day 51): 55.3 | Efficacy against brown dog ticks (Group D: 1 mg/kg topical spot-on with absorption enhancer and spreading agent, Day 2): 83.1 | Efficacy against brown dog ticks (Group D: 1 mg/kg topical spot-on with absorption enhancer and spreading agent, Day 9): 96.1 | Efficacy against brown dog ticks (Group D: 1 mg/kg topical spot-on with absorption enhancer and spreading agent, Day 16): 98.3 | Efficacy against brown dog ticks (Group D: 1 mg/kg topical spot-on with absorption enhancer and spreading agent, Day 23): 98.2 | Efficacy against brown dog ticks (Group D: 1 mg/kg topical spot-on with absorption enhancer and spreading agent, Day 30): 96.2 | Efficacy against brown dog ticks (Group D: 1 mg/kg topical spot-on with absorption enhancer and spreading agent, Day 37): 94.1 | Efficacy against brown dog ticks (Group D: 1 mg/kg topical spot-on with absorption enhancer and spreading agent, Day 44): 73.8 | Efficacy against brown dog ticks (Group D: 1 mg/kg topical spot-on with absorption enhancer and spreading agent, Day 51): 63.4 | Efficacy against brown dog ticks (Group E: 1 mg/kg topical spot-on in ethyl lactate, Day 2): 70.6 | Efficacy against brown dog ticks (Group E: 1 mg/kg topical spot-on in ethyl lactate, Day 9): 90.2 | Efficacy against brown dog ticks (Group E: 1 mg/kg topical spot-on in ethyl lactate, Day 16): 95.9 | Efficacy against brown dog ticks (Group E: 1 mg/kg topical spot-on in ethyl lactate, Day 23): 91.5 | Efficacy against brown dog ticks (Group E: 1 mg/kg topical spot-on in ethyl lactate, Day 30): 97.8 | Efficacy against brown dog ticks (Group E: 1 mg/kg topical spot-on in ethyl lactate, Day 37): 89.2 | Efficacy against brown dog ticks (Group E: 1 mg/kg topical spot-on in ethyl lactate, Day 44): 79.8 | Efficacy against brown dog ticks (Group E: 1 mg/kg topical spot-on in ethyl lactate, Day 51): 59.6
